Read-outs that look alike come from different tables or passages of the source.
Assays:
[1] = Pharmacokinetic study of six aconitum alkaloids in rat plasma after oral Fu Zi extracts (UPLC-MS/MS); format: in vivo, Sprague Dawley rats; conditions: both sexes, Sprague Dawley, in vivo, SD rat plasma, mean ± SD, n = 8; for AUC(0-t): read-out: AUC(0–48h); for CL/F: read-out: CLz/F (converted); for Vd/F: read-out: Vz/F; for half-life: read-out: t1/2z (converted)
Experimental: Fu Zi (200 g) was taken and broken by a pulverizer to the size of 0.5–1.0 cm. The broken Fu Zi was soaked in 1.6 L distilled water and boiled for 0.5 h. The filtrate was collected and the previous step was repeated for the filtered residue. The mixed filtrates were precipitated with 60% ethanol, and then centrifuged (2000× g, 10 min). The supernatant was decompressed and concentrated to a final density of 2.0 g/mL by the amount of the crude drugs. The final concentration of ethanol in Fu Zi extracts before administration was below 0.5%. The extract was subsequently kept at −20 °C for oral administration to rats.
All samples were analyzed on UPLC® I-Class and Xevo® TQS mass spectrometry combined system. Separations by a Waters ACQUITY UPLC® HSS T3(2.1 mm × 100 mm, 1.8 μm) column were conducted with a mobile phase of water (A) and acetonitrile (B), both containing 0.1% formic acid, at the flow rate of 0.3 mL·min^−1.The run time was 5.0 min and the gradient elution program was adopted as follows: 0–0.3 min, 10% B; 0.3–1 min, 10–50% B; 1–2.5 min, 50–90% B; 2.5–3 min, 90% B; 3–5 min, 10% B. The temperature of the column and samples were set at 45 °C and 10 °C, respectively. The volume of injection was 2 μL.
The detection was quantified by a triple quadrupole mass spectrometer that was set as multiple reactive monitoring (MRM) in the electrospray positive ionization mode (ESI+). The correlative parameters were as follows: capillary voltage: 3 kV; desolvation gas flow: 800 L·h^−1; cone gas flow: 150 L·h^−1; source temperature: 150 °C; desolvation temperature: 500 °C.
The method of […] was utilized. An amount of 100 μL of plasma samples from rats after oral administration of Fu Zi extracts was precipitated with 300 μL of 50% acetonitrile plus 50% methanol, vortexed for 1.0 min and centrifuged at a speed of 12,000× g at 4 °C for 10 min. The supernatant was transferred to another 1.5 mL centrifuge tube, dried with a stream of nitrogen at 40 °C, redissolved in 50 μL methanol and centrifuged at 12,000× g for 10 min. Then, the supernatant was pipetted out into the autosampler vials and analyzed by UPLC-MS/MS system.
24 Sprague Dawley rats (half male and female, weight 180–220 g) were purchased from Beijing Weitong Lihua Biotechnology Co.Ltd. (Beijing, China). The license number of experimental animal production was SCXK (Jing) 2016–0006. The animals were maintained under a standard laboratory condition (humidity: 40–70%, room temperature: 20–26 °C, […], 12 h dark-light cycle) and fed separately. All animal experiments were conducted according to the Guide for the Care and Use of Laboratory Animals (National Research Council of the USA, 1996) and approved by the Institutional Animal Care and Use Committee (IACUC-DWZX-2020-776). After 5 days of acclimation, the rats were fasted for 12 h but provided with water freely before the experiments. The rats were randomly divided into 3 groups: high (2.0 g/kg), middle (1.0 g/kg), and low (0.5 g/kg) dose groups. The Fu Zi extracts was administered to each rat intragastrically. An equivalent of 0.20 mL blood samples were collected from the fossa orbitalis vein into 1.5 mL heparinized centrifuge tubes at the designated time points after dosing: 0.08, 0.25, 0.5, 1, 2, 4, 8, 12, 24, and 48 h. The plasma samples were pipetted out into another 1.5 mL centrifuge tubes after being centrifuged at 5000× g for 10 min and then stored at −20 °C until further analysis.
The data were acquired by […] from Waters (UNIFI). Microsoft Office Excel and the SPSS software (Version 13.0) was used for data analysis. The data below the LLOQ were regarded as zero in summary statistics. The pharmacokinetic parameters were calculated by DAS pharmacokinetic program (Version 2.0) and all analyzed by non-compartmental method. […] All data were presented as mean ± SD. […]

[2] = biological target: T1, L-type calcium current (ICa,L) in normal hiPSC-CMs (Homo sapiens, UniProt Q13936); assay: Patch-clamp L-type calcium current, normal hiPSC-CMs; format: cell-based
T1 construct: endogenous in cells; host or cells: normal hiPSC-derived cardiomyocytes (hiPSC-CMs)
Description: Standard patch-clamp techniques were used to record action potentials, and L-type calcium currents. Composition of intracellular fluid and extracellular fluid were shown in Table 7 and Table 8, respectively. The signal was amplified using an HEKA EPC-10 patch-clamp amplifier (HEKA, Electronics, Ludwigshafen, Germany) and low-pass filtered at 5 kHz. Patch pipettes were fabricated from glass capillaries using a Sutter P-97 microelectrode puller (Novato, CA, USA) and the tips were heat polished with a microforge (NARISHIGE MF-900) to gain a resistance of 2–5 MΩ. Data acquisition was achieved using HEKA Patchmaster (V2x73.2). Data analysis and fit were performed using Clamfit and Graphpad Prism 6.0. The experiment was conducted at 37 °C. One cell can test one or more drugs, or multiple concentrations of the same drug but needs to be rinsed with extracellular fluid between each test. Nifedipine (Sigma) was used as a positive control to ensure cell quality. External solution containing 0.1% DMSO was applied as vehicle to establish the baseline. Recording was done at a temperature-controlled room of 35–37 degrees Celsius.
Isoproterenol, nifedipine, and AC were purchased from Sigma-Aldrich, which were resolved in DMSO (Sigma-Aldrich, D2650). Drug compounds final concentration were AC (0.05, 0.5,5 μM), nifedipine (1 μM), isoproterenol (3 μM), respectively. Dilutions were prepared within 60 min of treatment. All the compound solutions were subjected to regular 10 min ultrasound and oscillations to ensure that compounds were completely dissolved. Equal amounts of DMSO (0.1%) were used as the vehicle controls.

[3] = tested on: CYP3A4; conditions: in vivo; cited from earlier work

T1 sequence (Q13936 whole entry): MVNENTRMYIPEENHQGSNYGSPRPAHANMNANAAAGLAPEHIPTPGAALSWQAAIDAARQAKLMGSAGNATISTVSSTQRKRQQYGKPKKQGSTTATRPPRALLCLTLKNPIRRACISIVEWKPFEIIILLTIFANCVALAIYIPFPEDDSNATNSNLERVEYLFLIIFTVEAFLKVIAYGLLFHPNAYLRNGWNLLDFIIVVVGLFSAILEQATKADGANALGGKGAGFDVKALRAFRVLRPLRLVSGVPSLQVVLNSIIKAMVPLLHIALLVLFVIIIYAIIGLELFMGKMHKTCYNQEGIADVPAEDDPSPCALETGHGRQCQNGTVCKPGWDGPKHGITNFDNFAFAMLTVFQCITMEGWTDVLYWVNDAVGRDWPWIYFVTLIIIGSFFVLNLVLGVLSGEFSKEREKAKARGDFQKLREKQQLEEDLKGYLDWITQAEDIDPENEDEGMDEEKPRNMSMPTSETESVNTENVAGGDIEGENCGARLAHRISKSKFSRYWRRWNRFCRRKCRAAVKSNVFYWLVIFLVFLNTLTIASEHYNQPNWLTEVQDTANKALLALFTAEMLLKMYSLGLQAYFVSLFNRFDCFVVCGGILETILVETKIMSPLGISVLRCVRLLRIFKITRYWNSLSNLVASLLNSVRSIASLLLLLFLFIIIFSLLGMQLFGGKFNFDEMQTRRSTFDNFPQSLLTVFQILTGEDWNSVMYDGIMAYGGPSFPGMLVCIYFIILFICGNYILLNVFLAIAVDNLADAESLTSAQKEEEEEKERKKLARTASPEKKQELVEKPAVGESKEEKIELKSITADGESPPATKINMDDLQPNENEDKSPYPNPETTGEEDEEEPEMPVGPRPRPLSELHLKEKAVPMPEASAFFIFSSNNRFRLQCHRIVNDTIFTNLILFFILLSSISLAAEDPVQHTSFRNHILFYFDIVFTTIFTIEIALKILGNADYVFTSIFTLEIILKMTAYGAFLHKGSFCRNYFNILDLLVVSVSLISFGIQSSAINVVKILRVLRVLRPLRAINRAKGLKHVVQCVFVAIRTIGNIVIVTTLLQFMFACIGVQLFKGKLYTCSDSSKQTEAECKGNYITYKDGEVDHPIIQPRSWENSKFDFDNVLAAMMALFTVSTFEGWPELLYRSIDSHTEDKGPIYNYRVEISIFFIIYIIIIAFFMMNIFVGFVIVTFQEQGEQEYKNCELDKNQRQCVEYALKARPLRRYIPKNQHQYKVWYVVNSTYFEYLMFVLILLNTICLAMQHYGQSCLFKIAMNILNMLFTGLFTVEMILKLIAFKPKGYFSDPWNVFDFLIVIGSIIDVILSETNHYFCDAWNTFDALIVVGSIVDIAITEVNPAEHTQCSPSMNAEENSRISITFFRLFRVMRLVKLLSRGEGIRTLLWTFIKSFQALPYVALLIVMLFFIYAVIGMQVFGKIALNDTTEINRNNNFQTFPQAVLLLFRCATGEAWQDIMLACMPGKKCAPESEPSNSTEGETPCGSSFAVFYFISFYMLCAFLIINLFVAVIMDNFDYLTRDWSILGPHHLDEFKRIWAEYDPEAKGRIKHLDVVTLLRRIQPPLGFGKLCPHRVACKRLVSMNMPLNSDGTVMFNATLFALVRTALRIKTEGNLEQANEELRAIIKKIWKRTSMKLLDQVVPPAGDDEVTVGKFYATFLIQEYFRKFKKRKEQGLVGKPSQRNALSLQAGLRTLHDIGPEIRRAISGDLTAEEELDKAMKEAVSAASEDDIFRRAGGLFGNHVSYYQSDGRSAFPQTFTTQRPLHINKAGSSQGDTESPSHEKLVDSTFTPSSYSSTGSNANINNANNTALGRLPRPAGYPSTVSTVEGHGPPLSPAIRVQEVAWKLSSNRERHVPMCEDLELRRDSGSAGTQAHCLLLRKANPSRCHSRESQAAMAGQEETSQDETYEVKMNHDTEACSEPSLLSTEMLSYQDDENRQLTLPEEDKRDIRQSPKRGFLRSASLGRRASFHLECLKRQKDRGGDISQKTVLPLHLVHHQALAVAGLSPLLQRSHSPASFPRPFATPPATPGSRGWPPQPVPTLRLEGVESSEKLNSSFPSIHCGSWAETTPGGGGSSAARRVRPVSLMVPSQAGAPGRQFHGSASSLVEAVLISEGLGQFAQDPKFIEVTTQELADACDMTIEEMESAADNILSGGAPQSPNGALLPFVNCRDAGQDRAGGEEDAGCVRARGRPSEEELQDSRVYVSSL
T1 sequence (Q08289 whole entry partner): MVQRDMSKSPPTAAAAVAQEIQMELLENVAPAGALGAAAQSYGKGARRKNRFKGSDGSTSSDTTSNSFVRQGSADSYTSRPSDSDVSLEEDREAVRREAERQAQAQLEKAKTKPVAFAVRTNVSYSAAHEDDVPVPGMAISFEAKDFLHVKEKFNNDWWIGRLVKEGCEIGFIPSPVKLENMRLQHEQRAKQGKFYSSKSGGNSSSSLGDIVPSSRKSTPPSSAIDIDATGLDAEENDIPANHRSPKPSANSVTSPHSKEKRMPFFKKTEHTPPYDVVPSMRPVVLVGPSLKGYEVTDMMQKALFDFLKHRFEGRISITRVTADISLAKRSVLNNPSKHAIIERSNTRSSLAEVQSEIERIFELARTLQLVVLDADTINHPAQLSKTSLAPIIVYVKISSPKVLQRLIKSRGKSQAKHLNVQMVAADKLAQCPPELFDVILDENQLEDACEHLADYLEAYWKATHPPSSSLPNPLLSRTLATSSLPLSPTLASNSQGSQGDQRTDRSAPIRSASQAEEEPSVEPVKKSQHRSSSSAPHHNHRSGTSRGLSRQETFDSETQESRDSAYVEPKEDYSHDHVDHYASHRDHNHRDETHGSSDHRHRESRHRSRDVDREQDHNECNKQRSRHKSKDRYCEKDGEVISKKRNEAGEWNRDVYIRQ
T1 sequence (P54289 25-956 partner limits assumed): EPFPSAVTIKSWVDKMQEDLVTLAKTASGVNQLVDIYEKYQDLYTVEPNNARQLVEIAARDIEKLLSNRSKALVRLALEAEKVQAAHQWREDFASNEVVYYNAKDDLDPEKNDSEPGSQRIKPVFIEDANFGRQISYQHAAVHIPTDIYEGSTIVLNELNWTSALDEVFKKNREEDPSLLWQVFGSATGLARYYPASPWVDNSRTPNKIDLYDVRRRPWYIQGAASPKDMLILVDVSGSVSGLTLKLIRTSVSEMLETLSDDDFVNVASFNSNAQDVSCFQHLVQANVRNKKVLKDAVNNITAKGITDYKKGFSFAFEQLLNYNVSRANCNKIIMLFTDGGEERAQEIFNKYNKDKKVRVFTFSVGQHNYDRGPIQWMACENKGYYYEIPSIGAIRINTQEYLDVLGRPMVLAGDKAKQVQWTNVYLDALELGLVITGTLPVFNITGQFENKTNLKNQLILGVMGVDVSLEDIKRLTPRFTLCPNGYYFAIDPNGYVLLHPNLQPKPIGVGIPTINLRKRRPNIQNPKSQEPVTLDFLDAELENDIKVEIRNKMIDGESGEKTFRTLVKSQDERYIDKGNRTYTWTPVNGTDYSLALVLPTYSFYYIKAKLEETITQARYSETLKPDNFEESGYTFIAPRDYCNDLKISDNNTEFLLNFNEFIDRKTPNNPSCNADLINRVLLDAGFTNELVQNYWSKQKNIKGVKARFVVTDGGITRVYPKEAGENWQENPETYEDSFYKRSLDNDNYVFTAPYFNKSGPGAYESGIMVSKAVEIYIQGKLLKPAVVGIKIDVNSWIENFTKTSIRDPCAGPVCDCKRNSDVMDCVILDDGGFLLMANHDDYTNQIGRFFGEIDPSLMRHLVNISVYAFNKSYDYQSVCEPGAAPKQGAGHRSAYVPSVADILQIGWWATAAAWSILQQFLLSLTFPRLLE
T1 sequence (P54289 957-1103 partner limits assumed): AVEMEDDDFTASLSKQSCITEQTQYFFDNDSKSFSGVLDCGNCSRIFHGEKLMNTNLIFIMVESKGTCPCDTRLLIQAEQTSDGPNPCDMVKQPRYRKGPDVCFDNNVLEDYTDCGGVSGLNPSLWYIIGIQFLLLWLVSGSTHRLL

## CCN1C[C@]2(COC)[C@H](O)C[C@H](OC)[C@@]34[C@@H]5C[C@@]6(O)[C@H](OC(=O)c7ccccc7)[C@@H]5[C@@](OC(C)=O)([C@@H]([C@H](OC)[C@H]23)[C@@H]14)[C@@H](O)[C@@H]6OC [AC, aconitine]
[1]; oral Fu Zi extracts 0.5 g/kg
  Cmax: 1.28 ± 0.34 ng/mL
  Tmax: 4.38 ± 3.11 h
  AUC(0-t): 13.5 ± 3.28 ng·h/mL
  CL/F: 77 mL/min/kg
  Vd/F: 14 ± 4.33 L/kg
  half-life: 1.9 ± 0.31 h
[1]; oral Fu Zi extracts 1.0 g/kg
  Cmax: 1.69 ± 0.33 ng/mL
  Tmax: 3.13 ± 1.25 h
  AUC(0-t): 17.1 ± 4.68 ng·h/mL
  CL/F: 106 mL/min/kg
  Vd/F: 70 ± 33.4 L/kg
  half-life: 7.53 ± 2.74 h
[1]; oral Fu Zi extracts 2.0 g/kg
  Cmax: 2.27 ± 0.7 ng/mL
  Tmax: 1.03 ± 0.84 h
  AUC(0-t): 23.8 ± 7.77 ng·h/mL
  CL/F: 148 mL/min/kg
  Vd/F: 167 ± 80.1 L/kg
  half-life: 11.5 ± 4.3 h
[2]; normal (control) hiPSC-CMs, tested 0.05–5 μM, no concentration dependence, read-out: IC50, inhibition of L-type calcium current
  IC50: > 5 µM
[2]; normal group, 0.05–5 μM
  peak value of L-type calcium current: significantly decreased
[2]; normal hiPSC-CMs, estimated beyond tested range 0.05–5 μM, read-out: IC50 (eIC50) on ICa,L
  IC50: 27.5 µM
[3]
  main CYP 450 subtype for alkaloid metabolism: CYP3A4
